The test system of assay [1] is WI-38, normal human fetal lung fibroblast. Briefly: SRB assay on normal cell line WI-38. The note with it: SRB stain, 48 hours at 37° C. The assay is classed as cell-based. The text has this: (§1) Investigation for the bio-reactivity of H2L and PdL, as anticancer candidates, was achieved versus well documented human cancer cell lines, as three cancers entitled HepG2, MCF-7, and HCT-116, using the simplest tool SRB (sulforhodamine-B-stain). In particular, the most popular anticancer referenced drug (vinblastine) was used in the anticancer assay (the inhibited action of the cancer cells) to compare its bio-reactivity versus that one of H2L and PdL.
With HepG-2 (Hepatocellular carcinoma), HCT-116 (colon carcinoma), and MCF7 (breast adenocarcinoma), as human cancer cell lines, the antiproliferative reactivity of H2L and PdL was studied against the growth of these cancer cells by applying a spectrometric tool. Using SRB (sulforhodamine-B-stain) was essential in the spectrometric studies at a specific wavelength (564 nm, the optimized absorption wavelength). Recording the corresponded absorbance (A) at 564 nm was accomplished using a UV/Vis. spectrophotometer, UV-1800 mode Shimadzu with a mono-cell holder. With plates of 96-multiwell model, the culture of the current human cancer cell lines of 10^4 cells per well were accomplished followed by a gentle addition of DMSO solution of H2L or PdL the cultured wells of the cancer cell lines. […]
On the technique in general: In SRB staining, fixed cells bind dye roughly in proportion to their protein.

Assay [2] concerns HCT-116 (colon carcinoma). The assay can be described thus: SRB anticancer assay, HCT-116. The assay is classed as cell-based, human. The note with it: for IC50: SRB stain, 48 hours at 37° C., absorbance 564 nm.
Source text: as §1
(§2) With HepG-2 (Hepatocellular carcinoma), HCT-116 (colon carcinoma), and MCF7 (breast adenocarcinoma), as human cancer cell lines, the antiproliferative reactivity of H2L and PdL was studied against the growth of these cancer cells by applying a spectrometric tool. Using SRB (sulforhodamine-B-stain) was essential in the spectrometric studies at a specific wavelength (564 nm, the optimized absorption wavelength). Recording the corresponded absorbance (A) at 564 nm was accomplished using a UV/Vis. spectrophotometer, UV-1800 mode Shimadzu with a mono-cell holder. With plates of 96-multiwell model, the culture of the current human cancer cell lines of 10^4 cells per well were accomplished followed by a gentle addition of DMSO solution of H2L or PdL the cultured wells of the cancer cell lines.
(§3) The resulting mixed solution of H2L or PdL solution with the subjected cancer cell line of human in SRB was assigned in incubated isolated atmosphere for 48 hours at 37° C. The isolated atmosphere was accomplished by CO2 gas bubbling with v/v […].
(§4) The same procedure was followed with vinblastine, as vinblastine was subjected as a reference anticancer agent to compare its reactivity against that one of the studied H2L and PdL. For WI-38, as the normal human fetal lung fibroblast, the pervious procedure of the cancer cell lines was applied for H2L and PdL to evaluate their selectivity index. Using Eq. 1, below, to derive the inhibited potential of H2L or PdL against the growth of the human cancer and normal cell lines through their effective concentration in M (IC50, the half effective concentration of H2L or PdL): […]

In assay [3] the test system is HepG-2 (Hepatocellular carcinoma). Briefly: SRB anticancer assay, HepG-2. It counts as cell-based, human. The note with it: for IC50: SRB stain, 48 hours at 37° C., absorbance 564 nm.
Source text: as §1, §2, §3, §4

The test system of assay [4] is MCF7 (breast adenocarcinoma). Briefly: SRB anticancer assay, MCF-7. It counts as cell-based, human. The note with it: for IC50: SRB stain, 48 hours at 37° C., absorbance 564 nm.
Source text: as §1, §2, §3, §4

Results on two compounds are retold here after patent US11999755B1, “Effective anticancer drug candidate of dinuclear palladium (II) bis-dihydrozone malonyl complex” (KING FAISAL UNIVERSITY, priority 2024, dated 2024).

Molecules are shown by their SMILES.

The term IC50 denotes the concentration at which inhibition is half-maximal.

For the compound `O=C(CC(=O)NN=C1C(=O)Nc2ccccc21)NN=C1C(=O)Nc2ccccc21` [H2L, malonyl dihydrazone-isatin ligand], the IC50 in assay [1] stood at 133 ± 0.75 µM; in assay [2] it was 49.6 µM; in assay [3], 48.6 µM; in assay [4] it was 43.1 µM. In addition, the “Selectivity index HCT-116” value in assay [2] (normal WI-38 versus HCT-116) was 2.71. Further, the “Selectivity index HepG-2” value in assay [3] (normal WI-38 versus HepG-2) was 2.77. For the same compound, the “Selectivity index MCF-7” value in assay [4] (normal WI-38 versus MCF-7) is recorded as 3.09.

On to `CC[C@]1(O)C[C@@H]2CN(CCc3c([nH]c4ccccc34)[C@@](C(=O)OC)(c3cc4c(cc3OC)N(C)[C@H]3[C@@](O)(C(=O)OC)[C@H](OC(C)=O)[C@]5(CC)C=CCN6CC[C@]43[C@@H]65)C2)C1` [Vinblastine, vinblastine, reference compound], for which the IC50 in assay [2] (Homo sapiens, HCT-116) is 13.3 ± 0.11 µM; in assay [3] (Homo sapiens, HepG2) it was 7.5 ± 0.1 µM; in assay [4] (Homo sapiens, MCF7), 4.12 ± 0.14 µM.
